Measurements taken from PMC10987503, “Biomimetic NIR-II fluorescent proteins created from chemogenic protein-seeking dyes for multicolor deep-tissue bioimaging” (Nature Communications, 2024).
pKd: −log10 of the molar value.

Legend:
[1] = biological target: T1, human serum albumin (HSA) (Homo sapiens, UniProt P02768); experiment: BLI; also HRMS, SDS-PAGE and proteomics of the covalent adduct; format: binding
T1 construct: gene ALB; full HSA; recombinant domain III (DIII) also measured

[2] = biological target: T1, human serum albumin (HSA); experiment: BLI; also HRMS ([…] covalent binding) and SDS-PAGE
[3] = biological target: T1, human serum albumin (HSA); experiment: BLI; also HRMS ([…] covalent binding) and SDS-PAGE; remark: listed apart in the source

T1 sequence (P02768 25-609): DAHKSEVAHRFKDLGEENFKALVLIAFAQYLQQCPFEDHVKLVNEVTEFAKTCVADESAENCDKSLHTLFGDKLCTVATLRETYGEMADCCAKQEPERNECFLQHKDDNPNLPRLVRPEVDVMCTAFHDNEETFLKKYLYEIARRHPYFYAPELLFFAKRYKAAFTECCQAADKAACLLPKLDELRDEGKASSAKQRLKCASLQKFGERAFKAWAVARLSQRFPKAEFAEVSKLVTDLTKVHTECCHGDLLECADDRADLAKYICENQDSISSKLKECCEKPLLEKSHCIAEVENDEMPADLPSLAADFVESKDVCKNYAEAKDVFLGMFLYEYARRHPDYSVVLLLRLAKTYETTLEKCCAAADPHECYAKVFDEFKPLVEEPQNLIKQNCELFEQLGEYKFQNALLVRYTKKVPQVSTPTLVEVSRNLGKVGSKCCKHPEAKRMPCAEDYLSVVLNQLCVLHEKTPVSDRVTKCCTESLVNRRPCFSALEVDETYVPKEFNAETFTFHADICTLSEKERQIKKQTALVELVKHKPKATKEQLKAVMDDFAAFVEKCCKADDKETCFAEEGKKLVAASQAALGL

Question: With `O=C(O)CCCCCn1/c(=C/C=C2\CCCC(/C=C/C3=[N+](CCCCCC(=O)O)c4cccc5cccc3c45)=C2Cl)c2cccc3cccc1c32` [CO-1080] as the compound, how does the pKd [1] read?
Answer: The pKd was roughly 8.67.

Question: How did the pKd [2] turn out when `CCn1/c(=C/C=C2\CCCC(/C=C/C3=[N+](CC)c4cccc5cccc3c45)=C2Cl)c2cccc3cccc1c32` [Et-1080] was run?
Answer: The pKd was roughly 7.84.

Question: `O=S(=O)(O)CCCCn1/c(=C/C=C2\CCCC(/C=C/C3=[N+](CCCCS(=O)(=O)O)c4cccc5cccc3c45)=C2Cl)c2cccc3cccc1c32` [FD-1080] was tested. Which pKd [3] did it give?
Answer: Its pKd is roughly 7.08.
